Melting point and IC50 data for 24 compounds are collected here from patent US20080153806A1, “Novel Diazabicyclic Aryl Derivatives And Their Medical Use” (priority 2004, published 2008).

In data set [1] the target is T1, α7-subtype of nicotinic receptors (Rattus norvegicus, UniProt Q05941).
T1 construct: Cerebral cortices from male Wistar rats (150-250 g) are homogenised; from tissue; host or cells: rat cerebral cortex membrane homogenate (male Wistar rats)
The data set is described as follows: In vitro inhibition of 3H-α-bungarotoxine binding in rat brain. As to conditions: rat cerebral cortex homogenate, 2 hours at 37° C., read-out: IC50 (concentration of the test substance which inhibits the specific binding of 3H-α-bungarotoxine by 50%).

The term melting point denotes the temperature, or range, at which the solid turns liquid.

Structures can show the parent of a compound that is named as a salt. Where two headings read alike, the source gives them in different places.

T1 sequence (Q05941 23-502): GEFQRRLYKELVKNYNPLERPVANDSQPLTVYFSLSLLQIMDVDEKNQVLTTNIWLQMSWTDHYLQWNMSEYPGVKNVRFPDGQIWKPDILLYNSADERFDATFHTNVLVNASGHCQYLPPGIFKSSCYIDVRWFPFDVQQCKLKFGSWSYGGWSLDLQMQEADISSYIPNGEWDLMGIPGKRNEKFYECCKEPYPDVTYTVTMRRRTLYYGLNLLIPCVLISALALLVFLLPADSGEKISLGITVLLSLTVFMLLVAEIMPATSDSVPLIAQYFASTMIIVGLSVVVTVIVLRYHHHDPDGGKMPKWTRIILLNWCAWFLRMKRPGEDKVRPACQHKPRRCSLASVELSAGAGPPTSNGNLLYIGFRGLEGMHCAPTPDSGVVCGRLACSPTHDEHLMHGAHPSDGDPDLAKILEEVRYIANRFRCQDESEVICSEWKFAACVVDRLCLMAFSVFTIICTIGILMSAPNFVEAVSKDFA

`CN1C2CCC1CN(c1nnc(-c3ccccc3)o1)C2` (as salt: fumaric acid salt) registered a melting point of 170 to 191 °C. In turn, `CN1C2CCC1CN(c1ccc(-c3ccc(F)cc3)nn1)C2` registered a melting point of 164 to 165 °C. Turning to `CN1C2CCC1CN(c1cccc(-c3ccccc3)n1)C2` (as salt: fumaric acid salt), the melting point lay within 159 to 160 °C. As for `CN1C2CCC1CN(c1ccc(-c3ccccc3F)nn1)C2` [Compound E9, 3-[6-(2-Fluoro-phenyl)-pyridazin-3-yl]-8-methyl-3,8-diaza-bicyclo[3.2.1]octane], the melting point was determined as 152 °C. For the same compound, the IC50 in data set [1] ([…]) is under 1000 nM. The compound `CC(=O)Nc1ccccc1-c1ccc(N2CC3CCC(C2)N3C)nn1` (as salt: fumaric acid salt) yielded a melting point of 219 to 222 °C. The same measure, in the same setting: in the case of `CN1C2CCC1CN(c1ccc(-c3ccccc3)nn1)C2` it was 151 °C.

`CN1C2CCC1CN(c1ccc(-c3ccoc3)nn1)C2` [Compound E5, 3-(6-Furan-3-yl-pyridazin-3-yl)-8-methyl-3,8-diaza-bicyclo[3.2.1]octane] displayed a melting point of 152 °C. Also, in data set [1] (3H-α-bungarotoxine 2 nM), the IC50 was under 1000 nM. In the same order, the values of `CN1C2CCC1CN(c1ccc(-c3ccsc3)nn1)C2` [Compound E2, 8-Methyl-3-(6-thiophen-3-yl-pyridazin-3-yl)-3,8-diaza-bicyclo[3.2.1]octane] are 172 to 173 °C and under 1000 nM. `CN1C2CCC1CN(c1ccc(-c3ccccc3N)nn1)C2` (as salt: fumaric acid salt) gave a melting point of 186 to 195 °C. For the compound `CN1C2CCC1CN(c1ccc(-c3ccco3)nn1)C2` [Compound E3, 3-(6-Furan-2-yl-pyridazin-3-yl)-8-methyl-3,8-diaza-bicyclo[3.2.1]octane], the melting point was found to be 144 °C. The IC50 in data set [1] (3H-α-bungarotoxine 2 nM) was under 1000 nM. As for `CN1C2CCC1CN(c1ccc(-c3ccccc3Cl)nn1)C2` (as salt: fumaric acid salt), the melting point was 192 to 200 °C. The same measure, in the same setting: in the case of `CN1C2CCC1CN(c1ccc(-c3cccc(Cl)c3)nn1)C2` it was 159 °C.

Take `CN1C2CCC1CN(c1ccc(-c3cccs3)nn1)C2` [Compound E1, 8-Methyl-3-(6-thiophen-2-yl-pyridazin-3-yl)-3,8-diaza-bicyclo[3.2.1]octane]: the melting point was found to be 156 °C. Besides, in data set [1] (3H-α-bungarotoxine 2 nM), the IC50 was under 1000 nM. Regarding `COc1cccc(-c2ccc(N3CC4CCC(C3)N4C)nn2)c1`, the melting point was in the range of 92 to 97 °C. Same read-out and setting: in the case of `COc1ccccc1-c1ccc(N2CC3CCC(C2)N3C)nn1` it was 170 to 172 °C. `CN1C2CCC1CN(c1ccc(-c3cccc(N)c3)nn1)C2` [Compound E7, 3-[6-(8-Methyl-3,8-diaza-bicyclo[3.2.1]oct-3-yl)-pyridazin-3-yl]-phenylamine] yielded a melting point of 164 °C. Moreover, in data set [1] (3H-α-bungarotoxine 2 nM), the IC50 is under 1000 nM.

`CN1C2CCC1CN(c1nnc(-c3ccccc3)s1)C2` (as salt: fumaric acid salt): the melting point fell in the range of 192 to 200 °C.

Compound `CC(=O)Nc1cccc(-c2ccc(N3CC4CCC(C3)N4C)nn2)c1` [Compound E8, N-{3-[6-(8-Methyl-3,8-diaza-bicyclo[3.2.1]oct-3-yl)-pyridazin-3-yl]-phenyl}-acetamide] registered a melting point of 74 °C. In data set [1] ([…]), the IC50 is under 1000 nM. Turning to `COc1ccc2cc(-c3ccc(N4CC5CCC(C4)N5C)nn3)ccc2c1` (as salt: fumaric acid salt), the melting point turned out to be 242 °C. In turn, `CN1C2CCC1CN(c1ccc(-c3ccccc3)cn1)C2` displayed a melting point of 110.5 °C. Take `CN1C2CCC1CN(c1ccc(-c3cccnc3)nn1)C2`: the melting point fell in the range of 131 to 133 °C. In the case of `COc1ccc(-c2ccc(N3CC4CCC(C3)N4C)nn2)cc1`, the melting point was in the range of 154 to 155 °C. Consider `CN1C2CCC1CN(c1ccc(-c3ccc(Cl)cc3)nn1)C2`, for which the melting point was found to be 180 °C. Regarding `CN1C2CCC1CN(c1ccc(-c3cccc(F)c3)nn1)C2` [Compound E11, 3-[6-(3-Fluoro-phenyl)-pyridazin-3-yl]-8-methyl-3,8-diaza-bicyclo[3.2.1]octane], the melting point lay within 149 to 150 °C. In addition, in data set [1] (3H-α-bungarotoxine 2 nM), the IC50 was under 1000 nM.
